Reference: the supplement of paper PMC11208160

Test: recombinant UMI read abundance after kanamycin selection (control-corrected) (log10(CPM+1)); higher = more efficient recombination; extreme values may be limits of the assay; sequences stand for … in AGTGCAGAGAAAATCGGCCAGTTTTCTCTGCCTGCAGTCCGCATGCCGTGGGACCCCTTGGGTTCTAACCTGTTGCCTAGATTTATGCAGCGGACTGCCTTTCTCCCAAAGTGATAAACCGG…AGGTTGGTTTCACT; site = the 11-nt donor
Procedure, shortened: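 Reported values are log10(CPM+1) from a pooled Escherichia coli screen of donor and donor-binding-loop pairs for the IS621 bridge recombinase. Selection used IPTG (0.07 mM) plus kanamycin, against unselected plating, each in two replicates. Recombinant UMIs were amplified across the donor–target junction, sequenced, converted to CPM, averaged over replicates and scaled by control-derived factors.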
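Also: IS621 bridge recombinase in Escherichia coli cells against a fixed T5 target plasmid.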

Sequence | recombinant UMI read abundance (log10)
GGTCCATCATGGACCGGTTTTCCCGGTAATCCGTATTTGTA (site GGTCCAGCTTA) | 0.00308
GGTCCATCATGGACCGGTTTTCCCGGTAATCCGTATTTGTA (site GGTCCATCTTA) | 0.459
GGTCCCACATGGACCGGTTTTCCCGGTAATCCGTATTTGTA (site GGTCCAACTTA) | 0
GGTCCCACATGGACCGGTTTTCCCGGTAATCCGTATTTGTA (site GGTCCCACTTA) | 0.0202
GGTCCCACATGGACCGGTTTTCCCGGTAATCCGTATTTGTA (site GGTCCGACTTA) | 0.0061
GGTCCCACATGGACCGGTTTTCCCGGTAATCCGTATTTGTA (site GGTCCTACTTA) | 0.0287
GGTCGATCATGGACCGGTTTTCCCGGTAATCCGTATTTGCG (site GGTCGATCTCG) | 0.598
GGTCGTCCATGGACCGGTTTTCCCGGTAATCCGTATTTGTA (site GGTCGTCCTTA) | 0.0245
GGTCTAACATGGACCGGTTTTCCCGGTAATCCGTATTTGTA (site GGTCAAACTTA) | 0.0026
GGTCTAACATGGACCGGTTTTCCCGGTAATCCGTATTTGTA (site GGTCCAACTTA) | 0
GGTCTAACATGGACCGGTTTTCCCGGTAATCCGTATTTGTA (site GGTCGAACTTA) | 0.0128
GGTCTAACATGGACCGGTTTTCCCGGTAATCCGTATTTGTA (site GGTCTAACTTA) | 0.607
GGTCTACCATGGACCGGTTTTCCCGGTAATCCGTATTTGCA (site GGTCTACCTTG) | 0
GGTGCTGCATGGACCGGTTTTCCCGGTAATCCGTATTTGTG (site GGTGCTGCTCA) | 0.0597
GGTGGTGCATGGACCGGTTTTCCCGGTAATCCGTATTTGAC (site GGTGGTGCTGT) | 2.18
GGTGTGGCATGGACCGGTTTTCCCGGTAATCCGTATTTGGT (site GGAGTGGCTAC) | 0.128

Sequence | recombinant UMI read abundance (log10)
GGTGTGGCATGGACCGGTTTTCCCGGTAATCCGTATTTGGT (site GGCGTGGCTAC) | 0.0168
GGTGTGGCATGGACCGGTTTTCCCGGTAATCCGTATTTGGT (site GGGGTGGCTAC) | 0.145
GGTGTGGCATGGACCGGTTTTCCCGGTAATCCGTATTTGGT (site GGTGTGGCTAC) | 0.636
GGTGTTACATGGACCGGTTTTCCCGGTAATCCGTATTTGTT (site GGTGTTACTAA) | 0.51
GGTGTTCCATGGACCGGTTTTCCCGGTAATCCGTATTTGGC (site GGTGTTCCTGC) | 0
GGTGTTCCATGGACCGGTTTTCCCGGTAATCCGTATTTGTT (site GGTGTTCCTAA) | 0.00351
GGTTCCGCATGGACCGGTTTTCCCGGTAATCCGTATTTGCG (site GGTTCCGCTCG) | 0
GGTTCGTCATGGACCGGTTTTCCCGGTAATCCGTATTTGTT (site GGTACGTCTAA) | 0.0147
GGTTCGTCATGGACCGGTTTTCCCGGTAATCCGTATTTGTT (site GGTCCGTCTAA) | 0.0123
GGTTCGTCATGGACCGGTTTTCCCGGTAATCCGTATTTGTT (site GGTGCGTCTAA) | 0.00284
GGTTCGTCATGGACCGGTTTTCCCGGTAATCCGTATTTGTT (site GGTTCGTCTAA) | 0.351
GGTTTCACATGGACCGGTTTTCCCGGTAATCCGTATTTGTA (site GGTTTCACTTA) | 0.519
GTAAATCCATGGACCGGTTTTCCCGGTAATCCGTATTTGGG (site GTAAATCCTCC) | 0.325
GTAATAACATGGACCGGTTTTCCCGGTAATCCGTATTTGGG (site GTAATAACTCC) | 0.656
GTAATCTCATGGACCGGTTTTCCCGGTAATCCGTATTTGTA (site GTAATCTCTTA) | 2.83
GTACATGCATGGACCGGTTTTCCCGGTAATCCGTATTTGGT (site GTACATGCTAC) | 1.43
